According to ChEMBL document CHEMBL4422615, “Novel non-xanthine antagonist of the A2B adenosine receptor: From HTS hit to lead structure” (Eur J Med Chem, 2019):
Values after ≈ are worked out from the molar mass of the structure shown. Active and inactive are the calls of the source. No cut-off for these calls is given here.

How the values were obtained:
[1] = Aqueous solubility of the compound in phosphate buffer at pH 6.5 after 24 hrs by LC/MS/MS analysis; format: physicochemical
[2] = Oral bioavailability in dog at 1 mg/kg for 15 mins by HPLC-MS/MS analysis; format: ADME, organism-based, Canis lupus familiaris; details: in vivo
Mus musculus [3] = assay: Antifibrotic activity in FITC-induced C57BL/6J mouse pulmonary fibrosis model assessed as reduction in total number of cells in BALF at 100 to 500 mg/kg, bid administered via gavage pretreated for 45 mins before FITC addition until 72 hrs after FITC application; format: functional, organism-based
[4] = Apparent permeability from apical side to basolateral side in human Caco2 cells; format: ADME, cell-based; details: Caco-2
Mus musculus [5] = assay: Antifibrotic activity in FITC-induced C57BL/6J mouse pulmonary fibrosis model assessed as reduction in osteopontin level in lung at 100 to 500 mg/kg, bid administered via gavage pretreated for 45 mins before FITC addition until 72 hrs after FITC application by ELISA; format: functional, organism-based
[6] = MRT in mouse at 1 mg/kg, iv administered as bolus dose by HPLC-MS/MS analysis; format: ADME, organism-based; details: in vivo
[7] = Volume of distribution at steady state in dog at 0.3 mg/kg, iv administered as infusion for 15 mins by HPLC-MS/MS analysis; format: ADME, organism-based, Canis lupus familiaris; details: in vivo, read-out: Vdss
Adenosine receptor A1 [8] = target: T1, Adenosine receptor A1 (Homo sapiens, UniProt P30542); assay: Displacement of [3H]DPCPX from human A1 adenosine receptor expressed in CHO cell membranes after 60 mins by radioligand displacement assay
T1 sequence (P30542 whole entry): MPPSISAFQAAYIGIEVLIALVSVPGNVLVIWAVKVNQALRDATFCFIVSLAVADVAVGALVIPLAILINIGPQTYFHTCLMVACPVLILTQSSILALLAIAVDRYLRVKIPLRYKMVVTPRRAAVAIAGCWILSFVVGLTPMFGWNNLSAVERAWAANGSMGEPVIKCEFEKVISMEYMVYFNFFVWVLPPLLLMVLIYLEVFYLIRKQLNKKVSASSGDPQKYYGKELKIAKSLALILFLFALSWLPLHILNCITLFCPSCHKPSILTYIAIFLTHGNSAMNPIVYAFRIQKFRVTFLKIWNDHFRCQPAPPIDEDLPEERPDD

[9] = Volume of distribution at steady state in rat at 0.3 mg/kg, iv administered as infusion for 15 mins by HPLC-MS/MS analysis; format: ADME, organism-based; details: in vivo, read-out: Vdss
[10] = (§1) Anti-inflammatory activity in human LL29 cells assessed as reduction in NECA-induced IL6 level after 24 hrs by ELISA; format: functional, cell-based
Homo sapiens = species on record: Homo sapiens; assay: as §1; format: functional, cell-based
[11] = Efflux ratio in human Caco2 cells; format: ADME, cell-based; details: Caco-2
[12] = Clearance in dog blood at 0.3 mg/kg, iv administered as bolus dose by HPLC-MS/MS analysis; format: ADME, organism-based, Canis lupus familiaris
[13] = Fraction unbound in rat plasma by equilibrium dialysis method; format: ADME, cell-free
[14] = MRT in mouse at 0.3 mg/kg, iv administered as bolus dose by HPLC-MS/MS analysis; format: ADME, organism-based; details: in vivo
[15] = Half life in rat at 0.3 mg/kg, iv administered as infusion for 15 mins by HPLC-MS/MS analysis; format: ADME, organism-based; details: in vivo
Adenosine receptor A2a [16] = target: Adenosine receptor A2a (Rattus norvegicus, UniProt P30543); assay: Antagonist activity at recombinant rat A2A adenosine receptor expressed in CHO cells after 3 to 4 hrs by luciferase reporter gene assay; format: cell-based
[17] = Dose normalized AUC in dog at 1 mg/kg, po for 15 mins by HPLC-MS/MS analysis; format: ADME, organism-based, Canis lupus familiaris; details: in vivo, 0.25 h
Mus musculus [18] = assay: Antifibrotic activity in FITC-induced C57BL/6J mouse pulmonary fibrosis model assessed as reduction in IL-6 level in BALF homogenate at 100 to 500 mg/kg, bid administered via gavage pretreated for 45 mins before FITC addition until 72 hrs after FITC application by ELISA; format: functional, organism-based
Cytochrome P450 2C9 = Cytochrome P450 2C9 (Homo sapiens, UniProt P11712); assay: Inhibition of CYP2C9 in human liver microsomes using diclofenac as substrate after 15 mins in presence of NADPH by LC-MS/MS analysis; format: ADME
[19] = Dose normalized AUC in mouse at 1 mg/kg, iv administered as bolus dose by HPLC-MS/MS analysis; format: ADME, organism-based; details: in vivo
Mus musculus [20] = assay: Antifibrotic activity in FITC-induced C57BL/6J mouse pulmonary fibrosis model assessed as reduction in IL-6 level in lung tissue homogenate at 100 to 500 mg/kg, bid administered via gavage pretreated for 45 mins before FITC addition until 72 hrs after FITC application by ELISA; format: functional, organism-based
Adenosine receptor A1 [21] = target: T1, Adenosine receptor A1; assay: Antagonist activity at recombinant human A1 adenosine receptor expressed in CHO cells after 3 to 4 hrs by luciferase reporter gene assay; format: cell-based
[22] = Half life in rat at 1 mg/kg, po for 15 mins by HPLC-MS/MS analysis; format: ADME, organism-based; details: in vivo
Adenosine receptor A2a [23] = target: Adenosine receptor A2a (Homo sapiens, UniProt P29274); assay: Displacement of [3H]CGS21680 from human A2A adenosine receptor expressed in HEK293 cell membranes after 120 mins by radioligand displacement assay
[24] = Dose normalized Cmax in mouse at 1 mg/kg, iv administered as bolus dose by HPLC-MS/MS analysis; format: ADME, organism-based; details: in vivo
[25] = Plasma clearance in mouse; format: ADME, organism-based
PXR = target: T2, PXR (Homo sapiens, UniProt O75469); assay: Activation of PXR in human HepG2 cells assessed as induction of CYP3A4 expression at 2 x 10^-9 to 50 x 10^-6 mol/L by luciferase reporter gene assay relative to control; format: ADME, cell-based
T2 sequence (O75469 whole entry): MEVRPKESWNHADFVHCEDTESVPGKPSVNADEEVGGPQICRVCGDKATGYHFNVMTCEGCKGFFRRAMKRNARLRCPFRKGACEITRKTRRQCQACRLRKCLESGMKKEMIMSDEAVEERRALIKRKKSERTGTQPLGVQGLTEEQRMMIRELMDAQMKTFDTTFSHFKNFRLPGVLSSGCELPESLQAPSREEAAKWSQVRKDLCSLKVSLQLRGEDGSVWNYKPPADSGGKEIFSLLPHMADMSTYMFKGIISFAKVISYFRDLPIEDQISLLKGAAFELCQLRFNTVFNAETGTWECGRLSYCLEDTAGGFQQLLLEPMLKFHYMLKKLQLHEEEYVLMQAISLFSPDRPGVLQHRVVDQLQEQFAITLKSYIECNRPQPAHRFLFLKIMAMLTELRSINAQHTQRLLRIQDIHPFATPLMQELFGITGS

Cytochrome P450 2C9, sequence (P11712 whole entry): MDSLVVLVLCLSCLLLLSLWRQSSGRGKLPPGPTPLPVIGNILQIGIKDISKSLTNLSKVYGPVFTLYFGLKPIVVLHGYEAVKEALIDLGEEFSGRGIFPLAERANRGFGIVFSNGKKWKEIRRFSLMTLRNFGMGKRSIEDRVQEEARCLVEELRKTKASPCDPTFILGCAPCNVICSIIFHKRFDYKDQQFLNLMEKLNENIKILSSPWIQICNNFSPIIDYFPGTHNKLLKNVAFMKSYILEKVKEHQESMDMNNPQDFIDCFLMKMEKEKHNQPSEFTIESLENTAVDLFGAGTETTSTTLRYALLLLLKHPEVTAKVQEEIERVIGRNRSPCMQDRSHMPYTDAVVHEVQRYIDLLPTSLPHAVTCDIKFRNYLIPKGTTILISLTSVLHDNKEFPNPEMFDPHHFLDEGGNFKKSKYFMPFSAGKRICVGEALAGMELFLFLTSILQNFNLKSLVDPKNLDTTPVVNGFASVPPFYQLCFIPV
Adenosine receptor A2a (Homo sapiens, UniProt P29274), sequence (P29274 whole entry): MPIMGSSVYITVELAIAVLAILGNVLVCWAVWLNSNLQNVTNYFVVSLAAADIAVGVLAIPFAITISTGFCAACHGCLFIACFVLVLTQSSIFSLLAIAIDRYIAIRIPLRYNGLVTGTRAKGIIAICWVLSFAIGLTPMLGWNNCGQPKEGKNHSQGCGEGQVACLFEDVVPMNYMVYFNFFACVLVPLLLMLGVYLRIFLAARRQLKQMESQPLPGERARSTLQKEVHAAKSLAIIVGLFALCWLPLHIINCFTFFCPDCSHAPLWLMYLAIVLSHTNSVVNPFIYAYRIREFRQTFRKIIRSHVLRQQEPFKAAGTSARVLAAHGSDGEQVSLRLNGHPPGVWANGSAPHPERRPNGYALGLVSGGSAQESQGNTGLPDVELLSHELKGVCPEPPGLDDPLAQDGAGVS
Adenosine receptor A2a (Rattus norvegicus, UniProt P30543), sequence (P30543 whole entry): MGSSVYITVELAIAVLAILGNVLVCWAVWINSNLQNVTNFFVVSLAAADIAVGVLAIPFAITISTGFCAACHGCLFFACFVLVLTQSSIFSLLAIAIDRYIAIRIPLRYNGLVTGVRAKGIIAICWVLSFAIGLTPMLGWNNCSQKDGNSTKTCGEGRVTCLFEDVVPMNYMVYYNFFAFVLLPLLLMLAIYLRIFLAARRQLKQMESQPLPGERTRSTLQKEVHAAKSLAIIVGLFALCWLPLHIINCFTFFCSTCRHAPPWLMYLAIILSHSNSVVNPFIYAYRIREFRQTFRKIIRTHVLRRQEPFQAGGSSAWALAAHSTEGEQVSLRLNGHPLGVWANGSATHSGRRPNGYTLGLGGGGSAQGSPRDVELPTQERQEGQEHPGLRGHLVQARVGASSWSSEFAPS

solubility at 24 h [1]: 410 µg/mL (≈ 946 µM) | bioavailability [2]: 79% | Papp A→B [4]: 48 ×10⁻⁶ cm/s | MRT [6]: 1.2 h | Vd [7]: 2 L/kg | Ki (Adenosine receptor A1 [8]): > 1000 nM | Vd [9]: 1.5 L/kg | IC50 [10]: 185 nM | efflux ratio [11]: 0.82 | clearance [12]: 7.33 mL/min/kg | fraction unbound [13]: 0.7 | MRT [14]: 0.65 h | half-life [15]: 1.4 h | IC50 (Adenosine receptor A2a [16]): 750 nM | AUC/dose [17]: 2 kg·h/L | IC50 (Cytochrome P450 2C9): > 20000 nM | AUC/dose [19]: 1 kg·h/L | IC50 (Adenosine receptor A1 [21]): 1300 nM | half-life [22]: 1.4 h | Ki (Adenosine receptor A2a [23]): > 1000 nM | Cmax/dose [24]: 1.2 kg/L | clearance [25]: 10.2 mL/min/kg | Emax (PXR): 16%
Compound: CCn1c(=O)c2c(C)c(C(=O)N3CCC(O)CC3)sc2n(CCC(F)(F)F)c1=O
Activity (Mus musculus [3]): Active | Activity (Mus musculus [5]): inactive | Activity (Homo sapiens): Dose-dependent effect | Activity (Mus musculus [18]): inactive | Activity (Mus musculus [20]): Active
